Legend:
[1] = test system: Arabidopsis wildtype and ibr10, ech2, ech2ibr10, or acx1acx5 mutants; assay type: in vivo, Arabidopsis thaliana; details: roots treated with 1 μM ascr #18
Experimental: FIG. 3A provides a comparison of peroxisomal β-oxidation (pβo) pathways and associated enzymes involved in the conversion of indole-3-butyric acid (IBA)-to-indole acetic acid (IAA) in Arabidopsis and ascaroside biosynthesis in C. elegans. FIG. 3B provides LC-MS analysis of Arabidopsis seedlings treated with 1 μM ascr #18 for 24 hours before sample extraction, comparing ascr #9 production in wildtype and ibr10, ech2, ech2ibr10, or acx1acx5 mutants. FIG. 3C provides a comparison of ascaroside abundances in Arabidopsis wildtype and acx1acx5 roots treated with 1 μM ascr #18. Data are averages±SEM (n=5); n.d.=not detected. FIG. 3D provides RNAseq analysis of ten day-old Arabidopsis wildtype and acx1acx5 mutant roots, plotted as transcript abundance. Data are averages±s.d (n=6).
Arabidopsis thaliana mutant genotypes in the Col-0 background, ibr10-1, ech2-1, ibr10-1ech2-1, and acx1-2acx5-1, were obtained from Rice University (Houston, TX) (Strader, et al. (2011) Plant Cell 23:984-999; Adham, et al. (2005) Plant J. 41:859-874).
To test whether ascr #18 is metabolized via pβo in plants, Arabidopsis mutants impaired in key enzymes of this pathway were analyzed (FIG. 3B). […] In contrast, two other putative po genes, ibr10 and ech2, a putative enoyl-CoA hydratases (Strader, et al. (2011) Plant Cell 23:984-999; Adham, et al. (2005) Plant J. 41:859-874; Zolman, et al. (2008) Genetics 180(1): 237-51), are not required for ascr #18 metabolism in Arabidopsis. ACXs participate in the […] step of pβo by introducing α,β-unsaturation in the side-chain (Von Reuss, et al. (2012) J. Am. Chem. Soc. 134:1817-1824; Strader, et al. (2011) Plant Cell 23:984-999). […] These observations indicate that ascr #18 metabolism in plants into shorter-chained ascarosides proceeds via pβo, and that ACX1 and/or ACX5 are strictly required for chain shortening of ascr #10, whereas the first chain-shortening step from ascr #18 to ascr #10 may involve additional acyl-CoA oxidases.

[2] = test system: Arabidopsis root exudates; experiment: LC-MS of root exudates of ascr #18-treated Arabidopsis seedlings; assay type: in vivo, Arabidopsis thaliana; details: for secretion of ascr #18 metabolites via roots: ascr #18-treated wildtype, 6 hours treatment
Experimental: (§1) Data are average±SEM (n=6), n.d.=not detected. […] Exudates from approximately 40 seedlings were collected in distilled water and pooled. Abundances of ascarosides are shown as the peak area, as measured by LC-MS. Data are average±SEM (n=3); n.d.=not detected. FIGS. 5C and 5D show the relative abundances of ascarosides in root exudates of eight-day old tomato seedlings treated with 10 nM (FIG. 5C) or 1000 nM (FIG. 5D) ascr #18 for 6 hours. Exudates from approximately 10 seedlings were collected in distilled water and pooled. Abundances of ascarosides are shown as the peak area, as measured by LC-MS. Data are average±SEM (n=3); n.d.=not detected. FIG. 5E provides the relative abundances of ascr #10, ascr #1, and ascr #9 in the growth media of eight-day old tomato seedlings supplemented with 1 μM ascr #18. Ten-gram media samples were collected at different time points over a 48 hour period for metabolome extraction. Abundances of ascarosides are shown as the peak area, as measured by LC-MS.
(§2) To test this possibility, root-secreted metabolites of ascr #18- and mock-treated Arabidopsis were compared (FIG. 5A). For this experiment, 10-day old Arabidopsis seedlings were treated in growth media supplemented with ascr #18 for 6 hours prior to collection of exudates from roots submerged in water. […] Analogous results were obtained in experiments with tomato roots (FIG. 5C, 5D).

tomato root exudates = experiment: LC-MS of root exudates and growth media of ascr #18-treated tomato seedlings; assay type: in vivo, Solanum lycopersicum
Experimental: as §1, §2

| SMILES | ascaroside levels in ascr #18-treated acx1acx5 mutant compared with wildtype [1] | relative abundance among root-excreted ascr #18 metabolites ([2]; Arabidopsis) | ascarosides in root exudates of acx1acx5 ([2]; acx1acx5 seedlings, 10 nM ascr #18 for 6 hours) | secretion of ascr #18 metabolites via roots [2] | relative abundance among root-excreted ascr #18 metabolites (tomato root exudates) |
| --- | --- | --- | --- | --- | --- |
| C[C@H](CCCCCCC(=O)O)O[C@@H]1O[C@@H](C)[C@H](O)C[C@H]1O [ascr #10] | smaller amounts | least abundant | detected | secretion | least abundant |
| C[C@H](CCCCC(=O)O)O[C@@H]1O[C@@H](C)[C@H](O)C[C@H]1O [ascr #1] | not detected | – | – | secretion | – |
